Results reported in patent publication US7629323B2, “Manipulation of neuronal ion channels” (Northwestern University, priority 2003, dated 2009).

Assays:
FS neurons = assay: Current clamp recording of spiking in FS neurons; assay type: cell-based, rat
Source text: (§1) Tissue preparation. […] Hippocampal interneurons and GP were identified as CaMKII negative, GAD67 and parvalbumin positive neurons by single cell RT-PCR detection of corresponding mRNAs following physiology experiments (see below).
Electrophysiology. Whole-cell recordings used standard techniques^27,28. The internal solution consisted of (in mM): 30-90 K2SO4, 0-60 N-methyl-D-glucamine, 2 MgCl2, 40 HEPES, 5 EGTA, 12 phosphocreatine, 2 Na2ATP, 0.2 Na3GTP, and 0.1 leupeptin, pH 7.2 with H2SO4 (osmolarity 260-270 mOsm/l). The external solution consisted of (in mM): 140 Na-isethionate, 2 KCl, 4 MgCl2, 10 HEPES, 12 glucose and 0.001 TTX, pH 7.35 with NaOH (osmolarity 295-305 mOsm/l). The internal solution for current clamp recordings consisted of (in mM) 110 potassium methylsulphate, 2 MgCl2, 40 HEPES, 5 EGTA, 12 phosphocreatine, 2 Na2ATP, 0.2 Na3GTP, and 0.1 leupeptin, pH 7.2 with H2SO4 (osmolarity 260-270 mOsm/l). In the case of current clamp recordings, TTX was omitted from external solution. For the recordings in the presence of Ca^+2 ions EGTA was omitted from internal solution and 4 mM of MgCl2 was substituted by 2 mM of CaCl2 and 2 mM of MgCl2. All drugs were obtained from Sigma (St. Louis, […]) except BDS-I that was obtained from Alomone Labs (Jerusalem, Israel). Solutions were applied by gravity fed sewer pipe system. Recordings were obtained with Axon Instruments 200 patch-clamp amplifier and controlled and monitored with a PC running pClamp software (version 7.0) (Axon Instruments Inc., Union City, Calif.). […] After seal rupture, series resistance (2-10 MΩ) was compensated (75-90%) and periodically monitored. […] Activation data were fit with a Boltzmann equation of the form: 1/(1+exp ((Vh−V)/Vc), V stands for membrane potential. In the case of Kv3.4a current, an estimate of peak current was obtained by single exponential fit of decay phase extrapolated to the start of test pulse. In all other instances the voltage dependence of the currents was obtained from the amplitude of tail currents measured following 200 msec long voltage steps. […]

[1] = system: Na+ currents in FS neurons; assay: Na+ currents in FS neurons; assay type: cell-based, rat; conditions: n=3
Source text: as §1
(§2) Electrophysiology. Whole-cell recordings used standard techniques^27,28. The internal solution consisted of (in mM): 30-90 K2SO4, 0-60 N-methyl-D-glucamine, 2 MgCl2, 40 HEPES, 5 EGTA, 12 phosphocreatine, 2 Na2ATP, 0.2 Na3GTP, and 0.1 leupeptin, pH 7.2 with H2SO4 (osmolarity 260-270 mOsm/l). The external solution consisted of (in mM): 140 Na-isethionate, 2 KCl, 4 MgCl2, 10 HEPES, 12 glucose and 0.001 TTX, pH 7.35 with NaOH (osmolarity 295-305 mOsm/l). The internal solution for current clamp recordings consisted of (in mM) 110 potassium methylsulphate, 2 MgCl2, 40 HEPES, 5 EGTA, 12 phosphocreatine, 2 Na2ATP, 0.2 Na3GTP, and 0.1 leupeptin, pH 7.2 with H2SO4 (osmolarity 260-270 mOsm/l). In the case of current clamp recordings, TTX was omitted from external solution. […] Recordings were obtained with Axon Instruments 200 patch-clamp amplifier and controlled and monitored with a PC running pClamp software (version 7.0) (Axon Instruments Inc., Union City, Calif.). […] After seal rupture, series resistance (2-10 MΩ) was compensated (75-90%) and periodically monitored. […]

[2] = system: K+ channels in the Kv1, Kv2, Kv3, and Kv4 subfamilies; conditions: cited from earlier work
[3] = biological target: T1, homomeric Kv3.4a channels (Rattus norvegicus, UniProt Q63734); assay: Whole-cell recording of homomeric Kv3.4a channels expressed in HEK293 cells; assay type: cell-based; conditions: n=5
T1 construct: expressed in transfected cells; host or cells: HEK293
T1 sequence (Q63734 1-625): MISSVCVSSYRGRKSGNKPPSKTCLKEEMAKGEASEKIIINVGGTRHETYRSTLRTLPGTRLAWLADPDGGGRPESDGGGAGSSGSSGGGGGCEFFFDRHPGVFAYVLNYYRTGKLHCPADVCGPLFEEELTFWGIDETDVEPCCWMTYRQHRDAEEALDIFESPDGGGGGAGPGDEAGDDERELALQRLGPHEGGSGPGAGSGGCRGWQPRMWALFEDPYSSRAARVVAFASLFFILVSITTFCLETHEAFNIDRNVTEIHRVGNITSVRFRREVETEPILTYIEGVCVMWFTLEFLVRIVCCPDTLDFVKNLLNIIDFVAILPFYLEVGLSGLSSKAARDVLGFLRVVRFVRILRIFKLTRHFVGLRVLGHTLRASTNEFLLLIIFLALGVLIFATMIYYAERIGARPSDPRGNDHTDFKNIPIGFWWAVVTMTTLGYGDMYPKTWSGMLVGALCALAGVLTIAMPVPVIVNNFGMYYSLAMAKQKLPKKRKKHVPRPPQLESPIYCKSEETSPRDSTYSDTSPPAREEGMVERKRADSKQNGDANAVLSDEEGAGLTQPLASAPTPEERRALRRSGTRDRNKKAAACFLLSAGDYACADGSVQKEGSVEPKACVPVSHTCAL
Source text: as §2, with “solution. For the recordings in the presence of Ca^+2 ions EGTA was omitted from internal solution and 4 mM of MgCl2 was substituted by 2 mM of CaCl2 and 2 mM of MgCl2.” for “solution.”
Single cell RT-PCR (scRT-PCR). […] In the case of co-transfection with Kv3.4a and Kv3.1b cDNA, single cell RT-PCR was used to confirm the presence of both mRNAs in the recorded cell. […]

Kv3.4 channel = biological target: T2, Kv3.4 channel (Rattus norvegicus, UniProt Q63734); conditions: COS-transfected cells, reversible; read-out: IC50, inhibition of Kv3.4 current; cited from earlier work
T2 construct: host or cells: COS cells
T2 sequence (Q63734 1-625): T1 sequence (Q63734 1-625)

Substance: BDS-I (AAPCFCSGKPGRGDLWILRGTCPGGYGYTSNCYKWPNICCYPH)
- change in the rate of rise in the spike (FS neurons): no obvious change
- increase of duration of spikes in FS neurons (FS neurons; BDS-I 2 μM, extracellular Ca2+ 2 mM, n=4): 53+13%
- rate of repetitive spiking evoked by sustained current injection (FS neurons; with and without extracellular Ca2+): slowed
- inactivation kinetics of Na+ currents in FS neurons [1]: didn't significantly alter
- block of other K+ channels in the Kv1, Kv2, Kv3, and Kv4 subfamilies [2]: failed to block
- effect on homomeric Kv3.4a channel currents [3]: slowed the rising phase of the currents but led to larger currents later in the step
- IC50 (Kv3.4 channel): 0.047 µM
